# Test results from PMC10825133, “Repurposing proteasome inhibitors for improved treatment of triple-negative breast cancer” (Cell Death Discovery, 2024).
# Where two headings read alike, the source gives them in different places.
# Columns and labels:
# [1] = test system: eight TNBC cell lines (BT-549, CAL-148, HCC1806, HCC38, HCC70, MDA-MB-436, MDA-MB-453, MDA-MB-468); assay: Monotherapy drug screen, mean across the TNBC cell lines; conditions: for cytotoxic effect at the highest dose / area under the dose response curve (AUC), mean ± SD: TNBC cell lines; for cytotoxic effect at the highest dose: by GRmax; for area under the dose response curve (AUC), mean ± SD / IC50: 24 h; for IC50: Homo sapiens, read-out: GR50 (mean ± SD)
# Experimental: (§1) Eighteen pharmaceutical compounds were purchased from Selleckchem (Supplementary Table 2). Stock solutions were prepared using dimethyl sulfoxide (DMSO; Merck), physiological saline (sodium chloride 0.9%) or Milli-Q water, and stored at −80 °C. […] Matched concentration solvent vehicle controls were used for each drug concentration. The drug screens were performed in triplicate and repeated three (monotherapy) or two (combination therapy) times (Fig. 7).
# (§2) The optimal seeding density per 96-well was determined for each cell line as previously described. The cells were seeded at a density of 4.0 × 10^3 to 7.5 × 10^3 (cell type dependent) in 96-well clear, flat-bottom microplates (Corning Life Sciences, Sigma-Aldrich) in 100 µl complete culture medium (Supplementary Table 1) and cultured for 24 h. Cell viability was determined using the resazurin assay in untreated cells at the time of plating (t = 0) and treated cells after 24 h drug treatment (Fig. 7). Percentage cell viability was calculated as 100% × (absorbance of treated cells – absorbance of background controls) / (absorbance of matched solvent vehicle controls – absorbance of background controls). The area under the curve (AUC), half-maximal inhibitory concentration (IC50), drug potency (GR50), and drug efficacy (GRmax) were determined for each compound using the GRmetrics (version 1.20.0) package in R. The monotherapy data were evaluated with the IDACombo (version 1.0.2) package in R to predict potential drug combinations (Table 1). SynergyFinder (version 3.2.10) package in R was used to identify synergistic drug combinations.
# (§3) Eighteen pharmaceutical compounds were purchased from Selleckchem. […] The solubility of the compound was enhanced by pre-heating the solvent (lukewarm), if necessary. […] The stock solutions were stored at -80°C. […] Matched concentration solvent vehicle controls were used for each drug concentration. The drug screens were performed in triplicate and repeated three times for the monotherapies and twice for the combination treatments. The drug(s) and corresponding controls were plated in 96-well PCR plates (VWR) and stored at -20°C (Fig. 6). The drug plates were thawed, centrifuged (3000 rpm for 30s), and acclimatized to RT before the drugs were added to the cells. New drug plates were prepared for each drug screen.
# (§4) The cells were seeded at a density of 4.0x10^3 to 7.5x10^3 (cell type-dependent) in 96-well clear, flat-bottom microplates (Corning Life Sciences, Sigma-Aldrich) in 100 µl culture medium supplemented with 10% FBS and cultured for 24h. Cell viability was determined using the resazurin assay after 24h drug treatment (Fig. 6). Percentage cell viability was calculated as 100% × (absorbance of treated cells – absorbance of background controls) / (absorbance of matched solvent vehicle controls – absorbance of background controls). Normalized growth rate inhibition (GR) was assessed using the absorbance of untreated cells after the time of plating (t = 0). […] For combination treatment, the monotherapy data were evaluated with the IDACombo (version 1.0.2)[20] package in R to predict potential drug combinations (Table 1). SynergyFinder (version 3.2.10)[21] package in R was used to identify synergistic drug combinations.
# [2] = test system: CAL-148 cells; assay: Resazurin-based cell viability assay, monotherapy drug screen; parameters: species or system human; AUC: unit not given beside the values; conditions: CAL-148; for AUC: area under the dose response curve, 24 h; for GRmax: drug efficacy at highest tested dose (<0 cytotoxic, 0 cytostatic, >0 partial growth inhibition)
# Experimental: as §1, §2, §3
# Cell viability was measured daily (day 0 [plating day] to day 4) using 0.2 mg/ml resazurin solution prepared from resazurin sodium salt (Fisher Scientific) dissolved in sterile 1xPBS (ThermoFisher Scientific). Before use, the resazurin solution was brought to RT before 10 µl (10% of cell medium volume) was added to each 96-well and incubated for 4h at 37°C. […] The slope of the curve was used to determine the optimal seeding density, i.e., the highest seeding density with linear growth between days 1 and 3.
# as §4
# [3] = test system: eight TNBC cell lines and two controls (MCF-10A and MCF-7); assay: Monotherapy drug screen, all investigated cell lines; format: cell-based, human; conditions: for drug potency classification: metrics GR50 < 1.0 µM and AUC < 0.80; for drug potency classification, below the threshold: GR50 and AUC both below the threshold
# Experimental: as §1, §2, §3, §4
# [4] = target: T1, β5 catalytic site of the 20 S proteasome (Homo sapiens, UniProt P28074); assay: Proteasome activity of the β5 catalytic site in MCF-7 cells (Suc-Leu-Leu-Val-Tyr-AMC substrate); format: cell-based; conditions: MCF7, MCF-7 cells treated 6 h; for inhibition at 10 µM: 10000 nM, read-out: inhibition of β5 activity
# T1 construct: endogenous in cells; host or cells: MCF-7
# Experimental: Proteasome activity of the β5 catalytic site was determined for the PIs using a Suc-Leu-Leu-Val-Tyr-AMC fluorescent proteasome substrate (Enzo Life Sciences, Cat. BML-P802) at a final concentration of 20 µM. MCF-7 cells were seeded at 7.5 × 10^3 cells/well in black 96-well flat-bottom microplates (Nuclon™ Delta Surface, ThermoFisher Scientific) with 100 µl culture medium supplemented with 10% FBS. After 24 h, the cells were treated for 6 h with the 11 PIs at 1, 10, 100, and 1000 nM and matched untreated controls.
# [5] = test system: HCC38 cells; assay: Combination therapy, resazurin viability, SynergyFinder; format: cell-based, human; conditions: Homo sapiens
# Experimental: as §1, §2, §3, §4
# [6] = test system: control cell lines (MCF-10A and MCF-7); assay: Monotherapy drug screen, mean across the controls; format: cell-based, human
# Experimental: as §1, §2, §3, §4
# [7] = Homo sapiens, 24 h drug treatment, read-out: IC50
# [8] = Homo sapiens, growth rate inhibition concentration at GR(c) = 0.5, 24 h, read-out: GR50 (the source's name)
Structure (SMILES),AUC [2],GRmax [2],"IC50 [2, 8] [nM]",drug potency classification [3],"area under the dose response curve (AUC), mean ± SD [1]",other results
COc1cccc2c1C(=O)c1c(O)c3c(c(O)c1C2=O)C[C@@](O)(C(=O)CO)C[C@@H]3O[C@H]1C[C@H](N)[C@@H](O)[C@H](C)O1 [Epirubicin],0.73,0.14,110,,,"cytotoxic effect at the highest dose [1]: lowest cytotoxic effects; IC50 [2, 7]: 200 nM"
COC[C@H](NC(=O)c1cnc(C)s1)C(=O)N[C@@H](COC)C(=O)N[C@@H](Cc1ccccc1)C(=O)[C@@]1(C)CO1 [Oprozomib],0.90,0.14,1100,,,
"CC(C)C[C@H](NC(=O)CNC(=O)c1cc(Cl)ccc1Cl)B1OC(=O)C(CC(=O)O)(CC(=O)O)O1 [MLN 9708, MLN-9708]",0.88,0.40,500,potent drugs,0.79 ± 0.10,inhibition at 10 µM [4]: 51%
CC(=O)O[C@H]1C(=O)[C@@]2(C)[C@H]([C@H](OC(=O)c3ccccc3)[C@]3(O)C[C@H](OC(=O)[C@H](O)[C@@H](NC(=O)c4ccccc4)c4ccccc4)C(C)=C1C3(C)C)[C@]1(OC(C)=O)CO[C@@H]1C[C@@H]2O [Paclitaxel],0.92,0.51,1100,,,inhibition at 0.01 µM ([5]; paclitaxel 10 nM alone): -0.18%; inhibition at 0.078 µM ([5]; paclitaxel 78 nM alone): 10.6%; inhibition at 0.625 µM ([5]; paclitaxel 625 nM alone): 21.1%; inhibition at 5 µM ([5]; paclitaxel 5000 nM alone): 24.7%
CC(C)C[C@H](NC(=O)[C@@H](NC(=O)c1cccc(-c2ccccc2)n1)[C@@H](C)O)B(O)O [Delanzomib],0.77,0.39,23,potent drugs,0.69 ± 0.10,"IC50 ([6]; Homo sapiens, 24 h drug treatment, read-out: GR50 (mean ± SD)): 24 ± 13 nM; drug potency classification, below the threshold [3]: highly potent drugs; inhibition at 1 µM ([4]; 1000 nM): 55%; inhibition at 10 µM [4]: 100%; IC50 [1]: 79 ± 130 nM"
N.N.[Cl][Pt][Cl] [Cisplatin],0.48,−0.97,,potent drugs,0.51 ± 0.10,"area under the dose response curve (AUC), mean ± SD ([6]; 24 h): 0.54 ± 0.12; IC50 ([2]; 24 h drug treatment, read-out: IC50): 48 nM; IC50 ([2]; growth rate inhibition concentration at GR(c) = 0.5, 24 h, read-out: GR50 (the source's name)): 32 nM"
COc1cccc2c1C(=O)c1c(O)c3c(c(O)c1C2=O)C[C@@](O)(C(=O)CO)C[C@@H]3O[C@H]1C[C@H](N)[C@H](O)[C@H](C)O1 [Doxorubicin],0.72,0.15,120,,,"cytotoxic effect at the highest dose [1]: lowest cytotoxic effects; IC50 [2, 7]: 220 nM"
CC(C)C[C@H](NC(=O)[C@H](CCc1ccccc1)NC(=O)CN1CCOCC1)C(=O)N[C@@H](Cc1ccccc1)C(=O)N[C@@H](CC(C)C)C(=O)[C@@]1(C)CO1 [Carfilzomib],0.84,−0.01,370,potent drugs,0.73 ± 0.10,"drug potency classification, below the threshold [3]: highly potent drugs; IC50 [1]: 440 ± 340 nM"
